Assay results from ChEMBL document CHEMBL1157906, “Imidazoacridin-6-ones as novel inhibitors of the quinone oxidoreductase NQO2” (Bioorg Med Chem Lett, 2010).

What was measured:
HCT-116 = experiment: Toxicity in human HCT116 cells after 96 hrs by MTT assay; type: functional
Nucleic Acid = experiment: Binding affinity to calf thymus DNA assessed as change in melting temperature at 10 uM relative to control; type: nucleic-acid assay; details: Bos taurus
[1] = target: T1, Ribosyldihydronicotinamide dehydrogenase [quinone] (Homo sapiens, UniProt P16083); experiment: Inhibition of human recombinant NQO2 assessed as reduction of DCPIP by spectrophotometry
T1 sequence (P16083 whole entry): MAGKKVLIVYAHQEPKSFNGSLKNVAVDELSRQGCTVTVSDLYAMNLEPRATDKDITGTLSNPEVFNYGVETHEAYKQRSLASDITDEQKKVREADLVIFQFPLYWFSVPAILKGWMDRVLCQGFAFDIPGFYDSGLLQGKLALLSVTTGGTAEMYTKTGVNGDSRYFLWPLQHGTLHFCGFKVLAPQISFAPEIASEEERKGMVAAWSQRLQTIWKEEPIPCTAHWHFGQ

SMILES	Activity (HCT-116) [µM]	ΔTm (Nucleic Acid) [°C]	IC50 [1] [nM]
Cc1nc2ccc(NCCN(C)C)c3c(=O)c4ccccc4n1c23	0.46	7.1	323
CCN(CC)CCNc1ccc2ncn3c4ccc(O)cc4c(=O)c1c23 [C-1311]	0.77	4.5	148
CCN(CC)CCNc1ccc2ncn3c4ccc(OC)cc4c(=O)c1c23	2.9	4.5	1000
CCc1nc2ccc(NCCN(C)C)c3c(=O)c4ccccc4n1c23	0.47	5.1	693
CCN(CC)CCNc1ccc2ncn3c4ccccc4c(=O)c1c23	1	6.4	427
CCN(CC)CCCNc1ccc2ncn3c4ccc(O)cc4c(=O)c1c23	0.82	8	597
Cc1nc2ccc(NCCN(C)C)c3c(=O)c4cc(O)ccc4n1c23	0.65	9.1	50
CCN(CC)CCNc1ccc2ncn3c4c(OC)ccc(OC)c4c(=O)c1c23	1.67	1.8	17
CCN(CC)CCNc1ccc2ncn3c4c(OC)ccc(O)c4c(=O)c1c23	0.54	3.1	31
CN(C)CCCNc1ccc2ncn3c4ccccc4c(=O)c1c23	0.86	5.2	172
CCN(CC)CCNc1ccc2ncn3c4c(OC)cccc4c(=O)c1c23	1.7	5	99
CCN(CC)CCNc1ccc2ncn3c4cc(OC)c(OC)c(O)c4c(=O)c1c23	0.95	1	6
CN(C)CCNc1ccc2ncn3c4ccccc4c(=O)c1c23	0.57	5.6	830
CCN(CC)CCNc1ccc2ncn3c4cc(O)ccc4c(=O)c1c23	2.2	5	953
CN(C)CCNc1ccc2ncn3c4ccc(O)cc4c(=O)c1c23	1	5.1	296
COc1cccc2c1C(=O)c1c(O)c3c(c(O)c1C2=O)C[C@@](O)(C(=O)CO)C[C@@H]3O[C@H]1C[C@H](N)[C@H](O)[C@H](C)O1		14.5	
CCN(CC)CCNc1ccc2nc(C)n3c4ccc(O)cc4c(=O)c1c23	3	8.6	16
CCN(CC)CCNc1ccc2nc(C)n3c4ccc(OC)cc4c(=O)c1c23	3	8.6	9
